Publication PMC5982112 (Peptides, 2018)
Ends that are not written are not given here.

How the values were obtained:
Bacillus cereus = assay: Broth dilution sterilization assay, B. cereus; type: cell-based; conditions: lowest concentration that completely sterilizes bacteria in media, mean of at least three independent measurements
[1] = test system: Escherichia coli (ATCC 25922); type: cell-based
[2] = test system: Escherichia coli (ATCC 25922); assay: Broth dilution sterilization assay, E. coli; type: cell-based; conditions: lowest concentration that completely sterilizes bacteria in media, mean of at least three independent measurements
[3] = test system: Pseudomonas aeruginosa (PA01, ATTC 47085); assay: Broth dilution sterilization assay, P. aeruginosa; type: cell-based; conditions: lowest concentration that completely sterilizes bacteria in media, mean of at least three independent measurements
[4] = test system: Staphylococcus aureus (ATCC 25923); assay: Broth dilution sterilization assay, S. aureus; type: cell-based; conditions: lowest concentration that completely sterilizes bacteria in media, mean of at least three independent measurements
[5] = test system: Staphylococcus aureus (ATCC 25923); type: cell-based
[6] = test system: bloodstream (infective) form of Trypanosoma brucei; conditions: cited from earlier work
S. aureus = conditions: ref 17 (El Karim et al.); cited from earlier work
E. coli = conditions: ref 17 (El Karim et al.); cited from earlier work
[7] = test system: procyclic (noninfective) form of T. brucei; conditions: cited from earlier work

Row | Substance | BC Broth, minimum inhibitory concentration (MIC) (Bacillus cereus) [µM] | EC Radial Diffusion, minimum inhibitory concentration (MIC) [1] [µM] | EC Broth, minimum inhibitory concentration (MIC) [2] [µM] | PA Broth, minimum inhibitory concentration (MIC) [3] [µM] | SA Broth, minimum inhibitory concentration (MIC) [4] [µM] | SA Radial Diffusion, minimum inhibitory concentration (MIC) [5] [µM] | Killing of bloodstream (infective) form of Trypanosoma brucei [6] | Activity against S. aureus (S. aureus) | Activity against E. coli (E. coli) | Effect on procyclic (noninfective) form of T. brucei [7]
1 | RRGWALRLVLAY-NH2 [ARVA] | 6.4 | 1.57 | 2.3 | 4.3 | 5.1 | 3.46 |  |  |  | 
2 | PACAP(6–38) | >30 |  | >30 | 30.0 | >30 |  | effective |  |  | 
3 | vasoactive intestinal peptide [VIP] | >30 |  | >30 | 30.0 | >30 |  |  | not against S. aureus | had activity against E. coli | 
4 | [Pip^3]PACAP38 | 8.9 |  | >30 | 8.9 | >30 |  |  |  |  | 
5 | [Pip^3,Aib^16,28,Ala^17,Lys^34,D-Lys^38]PACAP38 | 3.95 |  | 2.15 | 0.52 | >30 |  |  |  |  | 
6 | [Ala^22]PACAP38 | 4.84 |  | 2.15 | 0.52 | >30 |  |  |  |  | 
7 | indolicidin | 10.7 |  | 6.24 | >50 | 7.9 |  |  |  |  | 
8 | Pituitary adenylate cyclase-activating polypeptide [PACAP38] | 23.3 |  | 28.3 | 1.2 | >30 |  | killed |  |  | resistant
9 | PACAP27 | >30 |  | >30 | 23.6 | >30 |  |  |  |  | 
10 | [Pip^3,Aib^16,28,Ala^17,21,Lys^34,D-Lys^38]PACAP38 | 7.26 |  | 1.43 | 0.64 | >30 |  |  |  |  | 
11 | [D-Ser^2]PACAP38 | 13.6 |  | >30 | 6.1 | >30 |  |  |  |  | 
